Results reported in patent US6747023B1 (Daiichi Pharmaceutical Co., Ltd., priority 1998, dated 2004).
Counter-ions that a name gives are not always drawn. Like-named read-outs stand apart in the source and are kept apart here.

Target: T1, human FXa (Homo sapiens, UniProt P00742)
T1 construct: purchased Cosmobio-ERL HFXa-1011
Experiment: Measurement of FXa inhibitory action (IC50)
Type: biochemical
Procedure: Measurement of FXa Inhibitory Action (IC50)
From the below-described equation, an inhibitory ratio % of each sample was determined.
Inhibitory ratio (%)=(1−OD of sample÷OD of control)×100

[1] = 0.05 U/ml human FXa, substrate S2222, absorbance at 405 nm, room temperature, read-out: Concentration (nM) of the sample at which 50% of Fxa activity is inhibited
[2] = same test as Tables 1-6, read-out: FXa 50% inhibitory concentrations

T1 sequence (P00742 235-488 limits assumed): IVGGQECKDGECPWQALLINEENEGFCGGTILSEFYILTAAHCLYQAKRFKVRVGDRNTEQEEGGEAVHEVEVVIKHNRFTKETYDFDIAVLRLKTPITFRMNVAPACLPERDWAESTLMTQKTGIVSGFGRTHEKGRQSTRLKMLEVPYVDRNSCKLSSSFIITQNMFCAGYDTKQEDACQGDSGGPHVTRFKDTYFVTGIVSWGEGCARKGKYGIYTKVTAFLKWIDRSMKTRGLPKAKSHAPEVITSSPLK
T1 sequence (P00742 41-179 partner limits assumed): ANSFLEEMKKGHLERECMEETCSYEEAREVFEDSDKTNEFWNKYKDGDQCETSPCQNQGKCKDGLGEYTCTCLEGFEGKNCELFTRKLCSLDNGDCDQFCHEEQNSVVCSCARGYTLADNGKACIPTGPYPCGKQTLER

For `O=C(c1ccc(-c2ccccn2)cc1)N1CCN(S(=O)(=O)c2cc3cc(Cl)ccc3[nH]2)CC1` [Example A-90, 1-[(5-Chloroindol-2-yl)sulfonyl]-4-[4-(pyridin-2-yl)benzoyl]piperazine hydrochloride], the IC50 [1] was 16 nM.

In the case of “4-[(6-Chlorobenzo[b]thien-2-yl)sulfonyl]-2-(hydroxymethyl)-1-[5-(pyridin-4-yl)pyrimidin-2-yl]piperazine hydrochloride [Example A-277]”, the IC50 [1] is reported as 2.7 nM.

Molecule `O=C(c1ccc(-c2ccncc2)cc1)N1CCN(S(=O)(=O)c2cc3cc(Cl)ccc3o2)CC1` [Example A-85, 1-[(5-Chlorobenzo[b]furan-2-yl)sulfonyl]-4-[4-(pyridin-4-yl)benzoyl]piperazine] has an IC50 [1] of 1000 nM.

“1-[(5-Chloroindol-2-yl)sulfonyl]-4-[4-methyl-2-(pyridin-4-yl)thiazol-5-yl]piperazine [Example A-296]” gave an IC50 [1] of 1.3 nM.

Molecule `O=C(c1ccc(-c2cc[n+]([O-])cc2)cc1)N1CCN(S(=O)(=O)c2cc3cc(Cl)ccc3[nH]2)CC1` [Example A-107, 4-[4-[[4-[(5-Chloroindol-2-yl)sulfonyl]piperazin-1-yl]carbonyl]phenyl]pyridine N-oxide] has an IC50 [1] of 4.7 nM.

For `Cc1c(S(=O)(=O)N2CCN(C(=O)c3ccc(-c4ccncc4)cc3)CC2)sc2ccc(Cl)cc12` [Example A-83, 1-[(5-Chloro-3-methylbenzo[b]thien-2-yl)sulfonyl]-4-[4-(piridin-4-yl)benzoyl]piperazine], the IC50 [1] was 2800 nM.

With `O=C(CC1CN(S(=O)(=O)c2cc3ccc(Cl)cc3s2)CCN1C(=O)c1ncc(-c2cccc[n+]2[O-])cn1)NC1CC1` (stereo not shown) [Example A-293, 2-[2-[[4-[(6-Chlorobenzo[b]thien-2-yl)sulfonyl]-2-[(N-cyclopropylcarbamoyl)methyl]piperazin-1-yl]carbonyl]pyrimidin-5-yl]pyridine N-oxide] the IC50 [1] was 1.9 nM.

For `C#Cc1ccc2[nH]c(S(=O)(=O)N3CCN(C(=O)c4ccc(-c5cc[n+]([O-])cc5)cc4)CC3)cc2c1` [Example A-120, 4-[4-[[4-[(5-Ethynylindol-2-yl)sulfonyl]piperazin-1-yl]carbonyl]phenyl]pyridine N-oxide], the IC50 [1] was 14 nM.

For `O=C(CC1CN(S(=O)(=O)c2cc3cc(Cl)ccc3[nH]2)CCN1C(=O)C1CC=C(c2cc[n+]([O-])cc2)CC1)N1CCCCC1` (stereo not shown) [Example A-259, 4-[4-[[4-[(5-Chloroindol-2-yl)sulfonyl]-2-[(piperidin-1-yl)carbonylmethyl]piperazin-1-yl]carbonyl]-1-cyclohexen-1-yl]pyridine N-oxide], the IC50 [1] was 3.5 nM.

Work on `O=C(c1ccc(-c2cc[n+]([O-])cc2)cc1)N1CCN(S(=O)(=O)c2cc3ccc(Cl)cc3[nH]2)CC1` [Example A-106, 4-[4-[[4-[(6-Chloroindol-2-yl)sulfonyl]piperazin-1-yl]carbonyl]phenyl]pyridine N-oxide] yielded an IC50 [1] of 420 nM.

With `O=C(c1ccc(-c2ccccn2)cc1)N1CCN(S(=O)(=O)c2ccc3cc(Cl)ccc3c2)CC1` [Example A-17, 1-[(6-Chloronaphthalen-2-yl)sulfonyl]-4-[4-(pyridin-2-yl)benzoyl]piperazine hydrochloride] the IC50 [1] was 180 nM.

Work on `C[n+]1ccc2nc(C(=O)N3CCN(S(=O)(=O)c4ccc5cc(Cl)ccc5c4)CC3)sc2c1` [Example B-61] yielded an IC50 [2] of 30 nM.

Molecule `Cn1c(S(=O)(=O)N2CCN(C(=O)c3ccc(-c4ccncc4)cc3)CC2)cc2cc(Cl)ccc21` [Example A-91, 1-[(5-Chloro-1-methylindol-2-yl)sulfonyl]-4-[4-(pyridin-4-yl)benzoyl]piperazine] has an IC50 [1] of 7000 nM.

In the case of `O=C(c1cnc(-c2ccncc2)nc1)N1CCN(S(=O)(=O)c2cc3cc(Cl)ccc3[nH]2)CC1` [Example A-131, 1-[(5-Chloroindol-2-yl)sulfonyl]-4-[[2-(pyridin-4-yl)pyrimidin-5-yl]carbonyl]piperazine], the IC50 [1] is reported as 19 nM.

`O=C(c1ccc(-c2ccncc2)cc1)N1CCN(S(=O)(=O)c2cc3ccc(Cl)cc3s2)CC1` [Example A-97, 1-[(6-Chlorobenzo[b]thien-2-yl)sulfonyl]-4-[4-(pyridin-4-yl)benzoyl]piperazine hydrochloride] gave an IC50 [1] of 82 nM.

In the case of `O=C(CC1CN(S(=O)(=O)c2cc3cc(Cl)ccc3[nH]2)CCN1C(=O)c1ncc(-c2cc[n+]([O-])cc2)s1)N1CCCC1` (stereo not shown) [Example A-298, 4-[2-[[4-[(5-Chloroidol-2-yl)sulfonyl]-2-[(pyrrolidin-1-yl)carbonylmethyl]piperazin-1-yl]carbonyl]thiazol-5-yl]pyridine N-oxide], the IC50 [1] is reported as 0.7 nM.

For `O=C(c1ncc(-c2cccc[n+]2[O-])cn1)N1CCN(S(=O)(=O)c2cc3ccc(Cl)cc3s2)CC1` [Example A-185, 2-[2-[[4-[(6-Chlorobenzo[b]thien-2-yl)sulfonyl]piperazin-1-yl]carbonyl]pyrimidin-5-yl]pyridine N-oxide], the IC50 [1] was 6.3 nM.

For `NC(=O)CC1CN(S(=O)(=O)c2cc3cc(Cl)ccc3[nH]2)CCN1C(=O)c1ccc(-c2ccncc2)cc1` (stereo not shown) [Example A-130, 2-Carbamoylmethyl-4-[(5-chloroindol-2-yl)sulfonyl]-1-[4-(pyridin-4-yl)benzoyl]piperazine], the IC50 [1] was 3.6 nM.

`O=C(c1ccc(-c2ccncc2)cc1)N1CCN(S(=O)(=O)c2cc3cc(Cl)ccc3s2)CC1` [Example A-96, 1-[(5-Chlorobenzo[b]thien-2-yl)sulfonyl]-4-[4-(pyridin-4-yl)benzoyl]piperazine hydrochloride] was tested, and the IC50 [1] was 450 nM.

With `O=C(c1ccc(-c2ccccn2)cc1)N1CCN(S(=O)(=O)c2cc3ccc(Cl)cc3s2)CC1` [Example A-98, 1-[(6-Chlorobenzo[b]thien-2-yl)sulfonyl]-4-[4-(pyridin-2-yl)benzoyl]piperazine hydrochloride] the IC50 [1] was 125 nM.

For `NCc1cc(-c2ccc(C(=O)N3CCN(S(=O)(=O)c4ccc5cc(Cl)ccc5c4)CC3)cc2)ccn1` [Example A-155, 1-[4-(2-Aminomethylpyridin-4-yl)benzoyl]-4-[(6-chloronaphthalen-2-yl)sulfonyl]piperazine hydrochloride], the IC50 [1] was 28 nM.

In the case of `O=C(c1ccc(-c2cc[n+]([O-])cc2)cc1)N1CCN(S(=O)(=O)c2cc3ccc(Cl)cc3s2)CC1` [Example A-116, 4-[4-[[4-[(6-Chlorobenzo[b]thien-2-yl)sulfonyl]piperazin-1-yl]carbonyl]phenyl]pyridine N-oxide], the IC50 [1] is reported as 8.6 nM.

`CN1CCc2nc(C(=O)N3CCN(S(=O)(=O)c4cc5cc(Cl)ccc5[nH]4)CC3CC(=O)N3CCOCC3)sc2C1` (stereo not shown) [Example B-99, hydrochloride] was tested, and the IC50 [2] was 1.7 nM.

`Cc1cc(-c2cnc(C(=O)N3CCN(S(=O)(=O)c4cc5cc(Cl)ccc5[nH]4)CC3)nc2)ccn1` [Example A-186, 1-[(5-Chloroindol-2-yl)sulfonyl]-4-[[5-(2-methylpyridin-4-yl)pyrimidin-2-yl]carbonyl]piperazine] showed an IC50 [1] of 1.9 nM.

`O=C(c1ncc(-c2cccc[n+]2[O-])cn1)N1CCN(S(=O)(=O)c2cc3cc(Cl)ccc3[nH]2)CC1` [Example A-183, 2-[2-[[4-[(5-Chloroindol-2-yl)sulfonyl]piperazin-1-yl]carbonyl]pyrimidin-5-yl]pyridine N-oxide] showed an IC50 [1] of 4.7 nM.

For `O=C(c1ccc(-c2ccncc2)cc1)N1CCN(S(=O)(=O)c2cc3ccc(Cl)cc3o2)CC1` [Example A-86, 1-[(6-Chlorobenzo[b]furan-2-yl)sulfonyl]-4-[4-(pyridin-4-yl)benzoyl]piperazine], the IC50 [1] was greater than 10000 nM.

`O=C(c1cnccc1-c1ccncc1)N1CCN(S(=O)(=O)c2ccc3cc(Cl)ccc3c2)CC1` [Example A-4, hydrochloride] gave an IC50 [1] of 54 nM.

With `Cc1cc(-c2cnc(C(=O)N3CCN(S(=O)(=O)c4cc5cc(Cl)ccc5[nH]4)CC3)s2)cc[n+]1[O-]` [Example A-229, 4-[2-[[4-[(5-Chloroindol-2-yl)sulfonyl]piperazin-1-yl]carbonyl]thiazol-5-yl]-2-methylpyridine N-oxide] the IC50 [1] was 1.6 nM.

For `O=C(c1ccc(-c2ccncc2)cc1)N1CCN(S(=O)(=O)c2ccc3cc(Cl)ccc3c2)CC1` [Example A-1, 1-[(6-Chloronaphthalen-2-yl)sulfonyl]-4-[4-(pyridin-4-yl)benzoyl]piperazine hydrochloride], the IC50 [1] was 123 nM.

`CN(C)C(=O)C[C@@H]1CN(S(=O)(=O)c2cc3ccc(Cl)cc3s2)C[C@H](CC(=O)N(C)C)N1C(=O)c1ncc(-c2cc[n+]([O-])cc2)cn1` [Example A-279, 4-[2-[[2,cis-6-Bis[(N,N-dimethylcarbamoyl)methyl]-4-[(6-chlorobenzo[b]thien-2-yl)sulfonyl]piperazin-1-yl]carbonyl]pyrimidin-5-yl]pyridine N-oxide] showed an IC50 [1] of 10 nM.

`NC(=O)C[C@@H]1CN(S(=O)(=O)c2ccc3cc(Cl)ccc3c2)C[C@H](CC(N)=O)N1C(=O)c1ccc(-c2ccncc2)cc1` [Example A-173, cis-2,6-Bis(carbamoylmethyl)-4-[(6-chloronaphthalen-2-yl)sulfonyl]-1-[4-(pyridin-4-yl)benzoyl]piperazine] was tested, and the IC50 [1] was 10 nM.

In the case of `CCC1CN(S(=O)(=O)c2cc3cc(Cl)ccc3[nH]2)CCN1C(=O)c1ncc(-c2cccc[n+]2[O-])cn1` (stereo not shown) [Example A-224, 2-[2-[[4-[(5-Chloroindol-2-yl)sulfonyl]-2-ethylpiperazin-1-yl]carbonyl]pyrimidin-5-yl]pyridine N-oxide], the IC50 [1] is reported as 7.6 nM.

In the case of `CN1CCc2nc(C(=O)N3CCN(S(=O)(=O)c4ccc5cc(Cl)ccc5c4)CC3CC(=O)N3CCOCC3)sc2C1` (stereo not shown) [Example B-63, 4-[(6-Chloronaphthalen-2-yl)sulfonyl]-1-[(6-methyl-4,5,6,7-tetrahydrothiazolo[5,4-c]pyridin-2-yl)carbonyl]-2-[[(morpholin-4-yl)carbonyl]methyl]piperazine hydrochloride], the IC50 [2] is reported as 12.5 nM.

Molecule `O=C(c1cnc(-c2cc[n+]([O-])cc2)nc1)N1CCN(S(=O)(=O)c2cc3cc(Cl)ccc3[nH]2)CC1` [Example A-135, 4-[5-[[4-[(5-Chloroindol-2-yl)sulfonyl]piperazin-1-yl]carbonyl]pyrimidin-2-yl]pyridine N-oxide] has an IC50 [1] of 14 nM.
